Assay results from PMC5303009, “Benzenesulphonamide inhibitors of the cytolytic protein perforin” (Bioorganic & Medicinal Chemistry Letters, 2017).
Several values for one entry are separate records, joined by “and”; a condition that tells them apart may be missing. Equal values may be shown once.

Molecular target: T1, recombinant perforin (Mus musculus, UniProt P10820)
T1 sequence (P10820 21-554): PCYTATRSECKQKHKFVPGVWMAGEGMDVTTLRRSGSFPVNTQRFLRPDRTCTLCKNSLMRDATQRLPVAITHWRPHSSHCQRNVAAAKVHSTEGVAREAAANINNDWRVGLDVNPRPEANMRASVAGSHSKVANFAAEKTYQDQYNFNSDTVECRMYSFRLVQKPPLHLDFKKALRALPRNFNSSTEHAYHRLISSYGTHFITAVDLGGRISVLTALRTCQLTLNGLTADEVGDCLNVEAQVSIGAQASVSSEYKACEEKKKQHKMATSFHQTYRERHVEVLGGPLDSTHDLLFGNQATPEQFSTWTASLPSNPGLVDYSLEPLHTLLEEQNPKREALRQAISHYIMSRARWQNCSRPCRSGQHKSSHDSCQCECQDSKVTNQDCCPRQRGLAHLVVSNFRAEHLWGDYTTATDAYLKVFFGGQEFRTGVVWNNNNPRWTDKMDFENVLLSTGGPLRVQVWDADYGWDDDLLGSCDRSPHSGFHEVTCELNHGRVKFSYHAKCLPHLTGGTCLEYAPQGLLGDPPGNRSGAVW
Assay: Inhibition of perforin-mediated lysis of Jurkat cells (51Cr release)
Assay type: cell-based
Conditions: Jurkat, read-out: Inhibitory activity in Jurkat assay at 20 μM
Method: The ability of the compounds to inhibit the lysis of nucleated (Jurkat T lymphoma) cells in the presence of 0.1% BSA, as measured by release of ^51Cr was measured. Jurkat target cells were labelled by incubation in medium with 100 µCi ^51Cr for one hour. The cells were then washed three times to remove unincorporated isotope and re-suspended at 1 x 10^5 cells per mL in RPMI buffer supplemented with 0.1% BSA. […] The supernatant was collected and assessed for its radioactive content on a gamma counter (Wallac Wizard 1470 automatic gamma counter). Each data point was performed in triplicate and an IC50 was calculated from the range of concentrations described to above.

With `O=S(=O)(Nc1cncc(-c2ccc(-c3ccc4[nH]ccc4c3)s2)c1)c1ccc(F)cc1F` [Compound 16] as the molecule, how does the inhibition at 20 µM read?
Its inhibition at 20 µM is 88%.

Same assay, conditions: compared with compound 15

With `O=C1Cc2cc(-c3ccc(-c4cncc(NS(=O)(=O)c5ccc(F)cc5F)c4)s3)ccc2N1` [Compound 14] as the molecule, how does the “Fold superior to N-methyl partner 15 (Jurkat IC50)” value read?
The value was ~2 fold.

Same assay, conditions: read-out: Inhibition of Jurkat cell lysis IC50; recombinant perforin, 0.1% BSA, 51Cr release, 4 h; average of at least two determinations

For `O=C1NCc2ccc(-c3ccc(-c4cncc(NS(=O)(=O)c5ccc(F)cc5F)c4)s3)cc21` [Compound 7], which IC50 is on record?
Its IC50 is 4.15 µM.

With `CN1Cc2ccc(-c3ccc(-c4cncc(NS(=O)(=O)c5ccc(F)cc5F)c4)s3)cc2C1=O` [Compound 8] as the molecule, how does the IC50 read?
Its IC50 is 10.4 µM.

For `O=C1Cc2cc(-c3ccc(-c4cncc(NS(=O)(=O)c5ccc(F)cc5F)c4)s3)ccc2N1` [Compound 14], which IC50 is on record?
Its IC50 is 5.18 µM.

Which IC50 does the source give for `CN1C(=O)Cc2cc(-c3ccc(-c4cncc(NS(=O)(=O)c5ccc(F)cc5F)c4)s3)ccc21` [Compound 15] here?
Its IC50 is 10.3 µM.

With `Cn1ccc2cc(-c3ccc(-c4cncc(NS(=O)(=O)c5ccc(F)cc5F)c4)s3)ccc21` [Compound 17] as the molecule, how does the IC50 read?
The IC50 was 7.58 µM.

Which IC50 does the source give for `CC(=O)c1cn(C)c2ccc(-c3ccc(-c4cncc(NS(=O)(=O)c5ccc(F)cc5F)c4)s3)cc12` [Compound 18] here?
Its IC50 is 11.2 µM.

Which IC50 does the source give for `CN1Cc2cc(-c3ncc(-c4cncc(NS(=O)(=O)c5ccc(F)cc5F)c4)s3)ccc2C1=O` [Compound 20] here?
Its IC50 is 17.1 µM.

With `CN1Cc2cc(-c3ccc(-c4cncc(NS(=O)(=O)c5ccc(F)cc5F)c4)nc3)ccc2C1=O` [Compound 22] as the molecule, how does the IC50 read?
Its IC50 is 8.17 µM.

Tested on: not listed separately
Assay: Solubility of the sodium salt in water
Assay type: physicochemical
Conditions: sodium salt in water

With `O=C1NCc2ccc(-c3ccc(-c4cncc(NS(=O)(=O)c5ccc(F)cc5F)c4)s3)cc21` [Compound 7] as the molecule, how does the solubility read?
Its solubility is 12900 µg/mL.

With `O=C1Cc2cc(-c3ccc(-c4cncc(NS(=O)(=O)c5ccc(F)cc5F)c4)s3)ccc2N1` [Compound 14] as the molecule, how does the solubility read?
The solubility was 390 µg/mL.

Same assay, conditions: sodium salt in water at room temperature

With `O=C1NCc2ccc(-c3ccc(-c4cncc(NS(=O)(=O)c5ccc(F)cc5F)c4)s3)cc21` [Compound 7] as the molecule, how does the solubility read?
Its solubility is 12900 µg/mL.

With `O=C1Cc2cc(-c3ccc(-c4cncc(NS(=O)(=O)c5ccc(F)cc5F)c4)s3)ccc2N1` [Compound 14] as the molecule, how does the solubility read?
Its solubility is 392 µg/mL.

Tested on: not listed separately
Assay: Stability in solution (water)
Assay type: physicochemical
Conditions: sodium salt, 24 h at 20 °C in water

Which “Stability in solution (% parent remaining)” value does the source give for `O=C1NCc2ccc(-c3ccc(-c4cncc(NS(=O)(=O)c5ccc(F)cc5F)c4)s3)cc21` [Compound 7] here?
Its value is 97% and 97.3%.

Which “Stability in solution (% parent remaining)” value does the source give for `O=C1Cc2cc(-c3ccc(-c4cncc(NS(=O)(=O)c5ccc(F)cc5F)c4)s3)ccc2N1` [Compound 14] here?
Its value is 88.7%.

Tested on: not listed separately
Assay: Microsome stability, mouse
Assay type: in vitro ADME
Conditions: sodium salt, mouse microsomes, 30 min

Which “Microsome stability (% parent remaining), Mouse” value does the source give for `O=C1NCc2ccc(-c3ccc(-c4cncc(NS(=O)(=O)c5ccc(F)cc5F)c4)s3)cc21` [Compound 7] here?
Its value is 42%.

Which “Microsome stability (% parent remaining), Mouse” value does the source give for `O=C1Cc2cc(-c3ccc(-c4cncc(NS(=O)(=O)c5ccc(F)cc5F)c4)s3)ccc2N1` [Compound 14] here?
The value was 84%.

Molecular target: T1, recombinant perforin
Assay: Inhibition of perforin-mediated lysis of Jurkat cells (51Cr release)
Assay type: cell-based
Conditions: read-out: Inhibitory activity in Jurkat assay at 20 μM with serum

Which inhibition at 20 µM does the source give for `O=S(=O)(Nc1cncc(-c2ccc(-c3ccc4[nH]ccc4c3)s2)c1)c1ccc(F)cc1F` [Compound 16] here?
Its inhibition at 20 µM is 32%.

Tested on: not listed separately
Assay: Plasma protein binding by equilibrium dialysis
Assay type: in vitro ADME
Conditions: mouse plasma, 6 h incubation at 37 °C

With `O=C1NCc2ccc(-c3ccc(-c4cncc(NS(=O)(=O)c5ccc(F)cc5F)c4)s3)cc21` [Compound 7] as the molecule, how does the fraction unbound at 6 h read?
Its fraction unbound at 6 h is 0.0003.

For `O=C1Cc2cc(-c3ccc(-c4cncc(NS(=O)(=O)c5ccc(F)cc5F)c4)s3)ccc2N1` [Compound 14], which fraction unbound at 6 h is on record?
The fraction unbound at 6 h was 0.0009.

Tested on: KHYG-1 NK cells
Assay: Toxicity to KHYG-1 NK cells (Trypan blue exclusion)
Assay type: cell-based, human
Conditions: after 24 h, ± SEM, 20 µM
Method: (§1) The use of NK cells to secrete perforin rather than employing isolated recombinant protein is a more stringent test of a compound’s ability to block lytic activity, requiring the inhibitor to access the synaptic cleft between effector (NK) and target cells where perforin is released.
(§2) The toxicity assay was carried out in exactly the same manner as the killing assay above, but instead of adding the labelled K562 target cells, 100 μL of RPMI 0.1% BSA was added. Cells were incubated for 4 h at 37 °C and then washed ×3 in RPMI + 0.1% BSA. […] Trypan blue was added to each well. Viable (clear) cells and total (clear + blue) cells were counted, and the percentage of viable cells was calculated compared to DMSO treated cell control (% viability).

For `O=C1NCc2ccc(-c3ccc(-c4cncc(NS(=O)(=O)c5ccc(F)cc5F)c4)s3)cc21` [Compound 7], which “KHYG-1 viability (% at 20 μM)” value is on record?
Its value is 96 ± 6.0%.

With `O=C1Cc2cc(-c3ccc(-c4cncc(NS(=O)(=O)c5ccc(F)cc5F)c4)s3)ccc2N1` [Compound 14] as the molecule, how does the “KHYG-1 viability (% at 20 μM)” value read?
Its value is 96 ± 1.0%.

Tested on: not listed separately
Assay: as above
Assay type: cell-based, human
Conditions: human, KHYG-1 NK cells, after 24 h, ± SEM
Method: as §1, §2

With `O=C1NCc2ccc(-c3ccc(-c4cncc(NS(=O)(=O)c5ccc(F)cc5F)c4)s3)cc21` [Compound 7] as the molecule, how does the viability at 24 h, 20 µM read?
The viability at 24 h, 20 µM was > 90%.

Which viability at 24 h, 20 µM does the source give for `O=C1Cc2cc(-c3ccc(-c4cncc(NS(=O)(=O)c5ccc(F)cc5F)c4)s3)ccc2N1` [Compound 14] here?
Its viability at 24 h, 20 µM is > 90%.

Tested on: not listed separately
Assay: Microsome stability, rat
Assay type: in vitro ADME
Conditions: sodium salt, rat microsomes, 30 min

With `O=C1NCc2ccc(-c3ccc(-c4cncc(NS(=O)(=O)c5ccc(F)cc5F)c4)s3)cc21` [Compound 7] as the molecule, how does the “Microsome stability (% parent remaining), Rat” value read?
Its value is 82%.

With `O=C1Cc2cc(-c3ccc(-c4cncc(NS(=O)(=O)c5ccc(F)cc5F)c4)s3)ccc2N1` [Compound 14] as the molecule, how does the “Microsome stability (% parent remaining), Rat” value read?
Its value is 79%.

Tested on: not listed separately
Assay: Microsome stability, human
Assay type: in vitro ADME
Conditions: sodium salt, human microsomes, 30 min

With `O=C1NCc2ccc(-c3ccc(-c4cncc(NS(=O)(=O)c5ccc(F)cc5F)c4)s3)cc21` [Compound 7] as the molecule, how does the “Microsome stability (% parent remaining), Human” value read?
The value was 83%.

For `O=C1Cc2cc(-c3ccc(-c4cncc(NS(=O)(=O)c5ccc(F)cc5F)c4)s3)ccc2N1` [Compound 14], which “Microsome stability (% parent remaining), Human” value is on record?
Its value is 71%.
